According to patent US20180206529A1, “FAST-DISSOLVING, CO-CRYSTALLINE FORMS OF SODIUM CHLORIDE” (NESTEC S.A., priority 2015, published 2018):
Each block holds one compound with its values, some of them ahead of it.

Assays:
Assay type in all cases: physicochemical
[1] = Glucose NaCl kinetics of dissolution via refractometry; details: 60 mL of water, stirring, particle size 100-200 μm, average of three experiments
Method: The (Glucose)2⋅NaCl⋅H2O co-crystals of Example 3 were tested for their dissolution behavior by refractometry. The equipment used was a RFM300+ refractometer by Bellingham and Stanley. The test samples were added to 60 mL of water, and the dissolution was measured under stirring at 50 rpm using a refractometer with one measurement/second for […]. Every dissolution experiment was performed three times and the average value was calculated. The particle size was 100-200 μm.

[2] = Dissolution kinetics via microscopic analysis (video-microscopy of one individual crystal in water); details: 100-200 μm, fully immersed in 10 μL of water
Method: One individual crystal of sodium chloride, Glucose monohydrate, anhydrous Glucose and of (Glucose)2⋅NaCl⋅H2O co-crystal prepared according to the method of Example 3 was tested for its dissolution behavior by microscope. The analysis was performed in analogy to the method described by Quilaqueo et al. (“Dissolution of NaCl crystals in artificial saliva and water by video-microscopy”, Food Research International 69, 2015, p. 373-380).
A digital microscope was used to perform video-microscopy on the co-crystals and their respective individual components. Crystal size in general ranged between 100-200 μm. Images were recorded on a DFC450 digital microscope from Leica Microsystems with a high quality 5 Megapixel CCD sensor. The light intensity and contrast were controlled by using a VH-K20 Variable Illumination. The software used to record and analyze the video images was provided by the supplier of the module Leica LAS MultiTime.
One individual crystal specimen of sufficient quality and crystallinity was fixed on the microscope table using double-face adhesive tape. The crystal was fully immersed in 10 μL of water and the video recorded in parallel. The recording was dissected into individual film stills and the remaining crystalline area was determined until complete dissolution occurred using the respective software.
Applying this methodology, a first order kinetic was used to interpret the result:
Where At is the area (μm^2) of the remaining solid crystal at a time t (in seconds), A0 is the initial area (μm^2) of the crystal, t is the time (s) and k is the constant (s^−1).

[3] = Dissolution kinetics via refractometry for the system sucrose/sodium chloride; details: 60 mL of water, room temperature, constant stirring, particle size 63-100 μm
Method: Changes in refraction of the solution were measured at room temperature while adding a defined amount of solid material to the solvent (60 mL of water) under constant stirring. The equipment used is composed of a magnetic stirrer and a digital refractive index probe (Fiso technologies) capable of constant measurement. Once the powder is added, refractive indices are recorded as a function of time. This technique was used to compare the dissolution behavior of the sucrose⋅NaCl⋅H2O co-crystal with its pure individual components as well as the physical mixture of the two pure ingredients. The particle size of all solids was standardized to be in between 63-100 μm.
Quantities Used for the Measurements:
Sucrose⋅NaCl⋅H2O co-crystal 2.00 g

10% dissolution reached at [1]: 6 s
50% dissolution reached at [1]: 17 s
90% dissolution reached at [1]: 289 s
k, constant of first order dissolution kinetic (crystal area over time) [2]: 0.14 s⁻¹
SMILES: OC[C@H]1OC(O)[C@H](O)[C@@H](O)[C@@H]1O (stereo partly drawn) [Anhydrous Glucose]

dissolution speed (normalized refractive index versus time, FIG. 7) [3]: dissolved almost as fast
SMILES: O.O.OCC1OC(OC2(CO)OC(CO)C(O)C2O)C(O)C(O)C1O.[Cl-].[Na+] (stereo not drawn) [sucrose⋅NaCl⋅H2O co-crystal, Sucrose⋅NaCl⋅2 H2O]

dissolution speed (normalized refractive index versus time, FIG. 7) [3]: dissolves much slower
SMILES: OC[C@H]1O[C@@](CO)(O[C@H]2O[C@H](CO)[C@@H](O)[C@H](O)[C@H]2O)[C@@H](O)[C@@H]1O [Pure sucrose, (D)-(+)-Sucrose]

Second part, the compound before the results:

SMILES: O.OC[C@H]1O[C@H](O)[C@H](O)[C@@H](O)[C@@H]1O.OC[C@H]1O[C@H](O)[C@H](O)[C@@H](O)[C@@H]1O.[Cl-].[Na+] [(Glucose)2•NaCl•H2O co-crystal, (α-D-Glucose)2⋅NaCl⋅H2O]
10% dissolution reached at [1]: 6 s
50% dissolution reached at [1]: 11 s
90% dissolution reached at [1]: 25 s
90% dissolution reached at ([1]; listed as (Glucose)2⋅NaCl⋅H2O): 25 s
90% dissolution reached at ([1]; listed as (Glucose)2⋅NaCl⋅H2O co-crystals): ≤ 25 s
k, constant of first order dissolution kinetic (crystal area over time) [2]: 0.19 s⁻¹

SMILES: O.OC[C@H]1O[C@H](O)[C@H](O)[C@@H](O)[C@@H]1O [Glucose monohydrate, alpha-D-(+)-Glucose monohydrate]
10% dissolution reached at [1]: 6 s
50% dissolution reached at [1]: 51 s
90% dissolution reached at [1]: 214 s
k, constant of first order dissolution kinetic (crystal area over time) [2]: 0.08 s⁻¹

SMILES: [Cl-].[Na+] [NaCl, sodium chloride]
10% dissolution reached at [1]: 4 s
50% dissolution reached at [1]: 8 s
90% dissolution reached at [1]: 29 s
dissolution speed (normalized refractive index versus time, FIG. 7) [3]: dissolves the fastest
k, constant of first order dissolution kinetic (crystal area over time) [2]: 0.21 s⁻¹
